Patent US20030199671A1, “Binding molecules for Fc-region polypeptides” (priority 2001, published 2003)
Blank lines part the entries; values can stand above or below the compound they belong to. Positions of bridges follow the written chain, without caps; N, C: chain ends. Residues, ends and D or L forms follow the SMILES beside them.

Assays:
human IgG1 [1] = biological target: T1, human IgG1 (Homo sapiens, UniProt P01857); test: Column capture from conditioned CHO cell culture supernatant containing 5% fetal bovine serum; type: binding; conditions: SEC-HPLC; load 93% monomer
T1 construct: all human subtypes derived from myeloma patients; purchased Calbiochem 400120; host or cells: myeloma patients
T1 sequence (P01857 1-330 isoform P01857-1): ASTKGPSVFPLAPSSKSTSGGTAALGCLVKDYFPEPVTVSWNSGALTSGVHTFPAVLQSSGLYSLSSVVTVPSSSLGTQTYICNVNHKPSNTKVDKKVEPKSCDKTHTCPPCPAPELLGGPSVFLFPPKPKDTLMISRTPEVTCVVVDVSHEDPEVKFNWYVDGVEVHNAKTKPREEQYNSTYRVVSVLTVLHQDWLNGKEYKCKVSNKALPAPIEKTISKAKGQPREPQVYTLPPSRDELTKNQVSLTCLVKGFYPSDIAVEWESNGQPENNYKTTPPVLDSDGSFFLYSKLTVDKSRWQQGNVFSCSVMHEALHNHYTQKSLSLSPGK
Protocol: Human IgG1 (93% monomer) was spiked into conditioned CHO media to 50 μg/ml and 5 ml (250 μg total) was loaded onto a 350 μl mini-column as described above. The column was washed to baseline with PBST, pH 7.2 and the flowthrough fraction collected. Bound IgG was eluted with 0.1M sodium bicarbonate buffer, pH 9.0, and the column cleaned with 0.1M CAPS, pH 11.5. The eluted and clean fractions were quickly neutralized to ˜pH 7.2 and assayed for mass recovery by SEC-HPLC. Thus, an 80% recovery (98% monomer) was obtained in the eluted fraction. The column load, flowtbrough, elution and cleaning fractions were further analyzed by electrophoresis (SDS-PAGE), Coomassie stain and Western analysis for the presence of human and bovine IgG.

human plasma IgG2 = biological target: T2, human plasma IgG2 (Homo sapiens, UniProt P01859); test: Fluorescence anisotropy binding, fluorescein-labeled peptide
T2 construct: the individual human plasma IgG isoforms: IgG1, IgG2, IgG3, or IgG4; purchased Calbiochem; host or cells: human plasma
T2 sequence (P01859 1-326 isoform P01859-1): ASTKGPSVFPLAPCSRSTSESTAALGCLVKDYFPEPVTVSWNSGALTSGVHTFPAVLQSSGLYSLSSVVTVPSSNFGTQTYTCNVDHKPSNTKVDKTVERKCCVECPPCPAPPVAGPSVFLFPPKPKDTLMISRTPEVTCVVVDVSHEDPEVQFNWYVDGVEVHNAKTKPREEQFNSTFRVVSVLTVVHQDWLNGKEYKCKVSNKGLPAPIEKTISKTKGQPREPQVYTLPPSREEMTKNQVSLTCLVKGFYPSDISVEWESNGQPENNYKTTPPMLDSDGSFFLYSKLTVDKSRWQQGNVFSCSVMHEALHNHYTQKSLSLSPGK
Protocol: (§1) All measurements were performed in 384 well microplates with 20 nM fluorescein-labeled peptide and various concentrations of the IgG isoform in a volume of between 10 and 20 μl using a Tecan Polarion fluorescence polarization plate reader. All binding buffers included 0.01% (v/v) Tween 20 to prevent peptide adsorption to the microplate. The binding mixture was equilibrated for 10 minutes in the microplate at 30° C. prior to performing the measurement.
(§2) Peptides were synthesized, fluorescein-labeled and HPLC purified as described above. Binding studies were performed using either a mixture of human plasma IgG isoforms (the Fc protein) or the individual human plasma IgG isoforms: IgG1, IgG2, IgG3, or IgG4.
(§3) Measurements were performed in 384-well microplates with 2 nM fluorescein-labeled peptide and a varied concentration of the IgG isoform target in a volume of 10 μl using a Tecan Polarion fluorescence polarization plate reader. The Fc binding buffer was 50 mM Tris-HCl, 200 mM NaCl, pH 8.0, 0.01% Tween 20. The IgG binding buffer was PBS with 0.01% Tween 20. The binding mixtures were equilibrated for 10 minutes in the microplate at 30° C. prior to performing the measurements.

human plasma IgG1 = biological target: T3, human plasma IgG1 (Homo sapiens, UniProt P01857); test: as above
T3 construct: the individual human plasma IgG isoforms: IgG1, IgG2, IgG3, or IgG4; purchased Calbiochem; host or cells: human plasma
T3 sequence (P01857 1-330 isoform P01857-1): as the sequence (P01857 1-330 isoform P01857-1) above
Protocol: as §1, §2, §3

polyclonal human IgG = test: DX253 column re-use: total dynamic binding capacity
Protocol: DX253 peptide was immobilized onto NHS-activated 4 Fast Flow to a ligand density of 2.9 μmole/ml as determined by quantitative amino acid analysis. This affinity resin was packed into a 4.6 mm×6 cm (internal diam.×length, 1.0 ml bed volume) PEEK column (Isolation Technologies, Inc., 5050IP-08046-006-20).
To establish total dynamic binding capacity, polyclonal human IgG (ICN, 55908) was prepared in PBS, pH 7.2 containing 0.05% NaN3 at 2.5 mg/ml. A total of 75 mg (30 ml) was loaded at 0.21 ml/minute (75 cm/hr) to capacity (until the absorbance at 280 nm of the load was equivalent to that of the column flowthrough). Fractions were collected across the entire run. Unbound IgG was washed to baseline at 0.42 ml/minute (150 cm/hour) with PBS, pH 7.2. Bound IgG was eluted with 0.1M citrate, pH 3.0 buffer and immediately neutralized with minimal addition of 1M HEPES, pH 9.0 buffer to ˜pH 7.0. […] All post-load wash, elution and cleaning steps were performed at a flow rate of 0.42 ml/minute (150 cm/hour). Total mg IgG bound was determined by measuring the absorbance at 280 nm of the elution fraction calculated using an extinction coefficicent of 1.4. Initial (T=0, prior to initiating column cycling) total dynamic capacity measured 19.8 mg human IgG per ml affinity resin. […] Mass balance recovery for these 5 total capacity determinations averaged 98%. […] The column retained approximately 90% relative performance with respect to total dynamic capacity after 95 cycles.

human IgG1 [2] = biological target: T1, human IgG1; test: Column capture out of tobacco extract; type: binding; conditions: from tobacco extract, size exclusion HPLC
Protocol: The ability of affinity media based on DX253 to capture human Fc and human IgG1 out of tobacco extract was evaluated in separate experiments. The tobacco extract used was a representative concentration blank lot (CropTech, lot NV100-136). Human Fc or IgG1 was spiked into the tobacco extract at 50 μg/ml. 100 μg (2 ml) was loaded onto a 350 μl column packed the DX253 media at 200 μl/min. (170 cm/hr.). Prior to loading, the column had been equilibrated with 50 mM Tris buffer containing 150 mM NaCl and 0.01% Tween 20, pH 7.3 (TBST, pH 7.3). After loading, the column was washed with 50 mM Tris buffer containing 1M NaCl, pH 7.3 followed by elution with 30 mM H3PO4, 150 mM NaCl, pH 2.0. The column was then cleaned with 0.1 M CAPS, pH 11.5 and separately with 30% isopropanol, 5% acetic acid in water, ˜pH 2.7. Collected fractions were neutralized immediately with 2M Tris, pH 8, prior to analysis by size exclusion HPLC.

[3] = pH 9.3, 0.01 M sodium bicarbonate
[4] = pH 9.3, .01 M sodium bicarbonate, 0.2 M NaCl

- Monomer in the eluted fraction (human IgG1 [1]): 98%
- Kd (human plasma IgG2; pH 7.4, PBS, […] NaCl): 1.1 ± 0.3 µM
- Kd (human plasma IgG2; [3]): > 10 µM
- Effect of including 15% ethylene glycol on binding to IgG1 (human plasma IgG1; 15% ethylene glycol): no observed effect
- Kd (human plasma IgG1; pH 5.7, 0.01 M Tris-acetate, 0 M NaCl): 0.074 ± 0.053 µM
- Kd (human plasma IgG1; pH 5.7, 0.01 M Tris-acetate, […] NaCl): 0.84 ± 0.7 µM
- Kd (human plasma IgG1; pH 7.4, 0.01 M Tris-HCl): 0.4 ± 0.06 µM
- Kd (human plasma IgG1; pH 7.4, PBS, […] NaCl): 2.9 ± 0.9 µM
- Kd (human plasma IgG1; pH 7.4 PBS, […] NaCl, 15% EG): 3.6 ± 2.5 µM
- Kd (human plasma IgG1; [3]): > 10 µM
- Kd (human plasma IgG1; [4]): > 10 µM
Compound: CC[C@H](C)[C@@H]1NC(=O)[C@H](CC(C)C)NC(=O)[C@H](CCC(=O)O)NC(=O)CNC(=O)[C@H](Cc2c[nH]c3ccccc23)NC(=O)[C@H]([C@@H](C)O)NC(=O)[C@H]([C@@H](C)O)NC(=O)[C@H](Cc2ccc(O)cc2)NC(=O)[C@H](C(C)C)NC(=O)[C@@H](NC(=O)[C@H](CCSC)NC(=O)[C@H](Cc2c[nH]cn2)NC(=O)[C@H](CC(=O)O)NC(=O)[C@H](CC(=O)O)NC(=O)CNC(C)=O)CSSC[C@@H](C(=O)N[C@@H](CC(=O)O)C(=O)N[C@@H](CC(N)=O)C(=O)N[C@@H](Cc2c[nH]cn2)C(=O)N[C@@H](CCC(=O)O)C(=O)N2CCC[C@H]2C(=O)NCC(=O)N2CCC[C@H]2C(=O)N[C@@H](CCC(=O)O)C(=O)NCC(=O)NCC(=O)NCC(=O)N[C@@H](CCCCN)C(N)=O)NC(=O)[C@H](Cc2c[nH]c3ccccc23)NC1=O [DX249] (Ac-GDDHMCVYTTWGELIWCDNHEPGPEGGGK-NH2; disulfide 6-17)

- Kd (human plasma IgG2; pH 5.7, 0.01 M Tris-acetate): > 1 µM
- Kd (human plasma IgG2; pH 7.4, 0.01 M Tris-HCl): 2.1 to 3.4 µM
- Kd (human plasma IgG2; [3]): > 10 µM
- Kd (human plasma IgG1; pH 7.4, 0.01 M Tris-HCl): 2.1 to 3.4 µM
- Kd (human plasma IgG1; pH 7.4, PBS, […] NaCl): 2.9 ± 1.6 µM
- Kd (human plasma IgG1; [3]): > 10 µM
- Kd (human plasma IgG1; [4]): > 10 µM
Compound: CC(=O)NCC(=O)N[C@@H](CC(=O)O)C(=O)N[C@@H](CC(=O)O)C(=O)N[C@@H](CC(=O)O)C(=O)N[C@@H](Cc1c[nH]cn1)C(=O)N[C@H]1CSSC[C@@H](C(=O)N2CCC[C@H]2C(=O)N[C@@H](Cc2c[nH]cn2)C(=O)NCC(=O)N[C@@H](CCC(=O)O)C(=O)N2CCC[C@H]2C(=O)NCC(=O)N2CCC[C@H]2C(=O)N[C@@H](CCC(=O)O)C(=O)NCC(=O)NCC(=O)NCC(=O)N[C@@H](CCCCN)C(N)=O)NC(=O)[C@H](CCC(=O)O)NC(=O)[C@H](CO)NC(=O)[C@H](CC(N)=O)NC(=O)[C@H](Cc2ccccc2)NC(=O)[C@H](Cc2c[nH]c3ccccc23)NC(=O)[C@H](CCC(=O)O)NC(=O)[C@H](CCCNC(=N)N)NC(=O)[C@H](Cc2ccccc2)NC(=O)[C@H](Cc2c[nH]c3ccccc23)NC(=O)[C@H](Cc2ccc(O)cc2)NC1=O [DX252] (Ac-GDDDHCYWFREWFNSECPHGEPGPEGGGK-NH2; disulfide 6-17 (inferred))

- Initial total dynamic capacity (polyclonal human IgG; T=0, ligand density 2.9 μmole/ml): 19.8 mg human IgG per ml affinity resin
- % Relative Performance (total capacity vs T=0, 19.8 mg/ml) (polyclonal human IgG; Total Capacity Cycle Run No. 0): 100%
- % Relative Performance (total capacity vs T=0, 19.8 mg/ml) (polyclonal human IgG; Total Capacity Cycle Run No. 26): 93.9%
- % Relative Performance (total capacity vs T=0, 19.8 mg/ml) (polyclonal human IgG; Total Capacity Cycle Run No. 66): 85.9%
- % Relative Performance (total capacity vs T=0, 19.8 mg/ml) (polyclonal human IgG; Total Capacity Cycle Run No. 86): 91.4%
- % Relative Performance (total capacity vs T=0, 19.8 mg/ml) (polyclonal human IgG; Total Capacity Cycle Run No. 96): 87.9%
- Relative performance with respect to total dynamic capacity (polyclonal human IgG; after 95 cycles): approximately 90%
- % purity monomeric protein, IgG1 (human IgG1 [2]): 89%
Compound: Ac-GDRRACSRDWSGALVWCAGHEPGPEGGGK-NH2 (not fully specified (bridges); printed as Ac-GDRRACSRDWSGALVWCAGHEPGPEGGGK-NH2; cysteine pairing not given here) [DX253]
